US20190269705A1, “METHODS AND MATERIALS FOR TREATING GRAFT VERSUS HOST DISEASE” (Regents of the University of Minnesota, priority 2017, published 2019)
Entries after “also recorded” stand apart in the source; their conditions may differ.

Key:
[1] = test system: Th17 cells; experiment: ATAC-Seq chromatin accessibility, Th17; type: cell-based, mouse; conditions: Th17, 500 nM CB839, day 5
Protocol: ATAC-Seq: Crude nuclei pellets were isolated as described elsewhere (see, e.g., Buenrostro et al., 2013 Nat Meth. 10(12):1213-1218) with modifications. Briefly, naïve CD4 T cells were skewed to Th1 and Th17 subsets in vitro with vehicle or in the presence of 500 nM CB839. At Day 5, T cells were re-isolated for CD4+ cells using Miltenyi CD4+ negative selection kit (Cat #: 130-104-454). 1×10^5 cells were removed for nuclei extraction in ATAC-Seq lysing buffer. Cells were exposed to Tn5+ adaptor proteins from Nextera DNA for 30 min at 37° C. and immediately placed on ice. Transposed eluate was amplified via PCR using Nextera DNA preparation kit (Illumina, Cat #: FC-121-1030), NEBNext High-fidelity 2× PCR mix (New England Labs, Cat #: M0541), and multiplexed (Illumina, Cat #: FC-121-1011). Samples were purified using Zymo DNA cleanup kit (Cat #: D4011). QC of samples was run on bioanalyzer before being sent for sequencing. RNA-Seq: Th1 and Th17 cells skewed with or without CB839 were isolated as previously described and total RNA extracted (Qiagen RNEasy Mini kit, Cat #: 74104). RNA was sent to VANTAGE core at Vanderbilt University and sequenced on HiSeq 2500. n=3 for each sample was analyzed. Samples were analyzed using the R program DESeq2. GSEA was performed using MSigDB. […]

[2] = test system: CD8 T cells; experiment: CD8 T cells activated on αCD3/CD28 + IL2, flow cytometry
[3] = test system: Th17 cells; experiment: Intracellular metabolites by mass spectrometry and pathway analysis, Th17; type: cell-based, mouse; conditions: for Hits: Th17 Pathway
Protocol: Glucose uptake assays were performed as described elsewhere (see, e.g., Macintyre et al., 2014 Cell Metab. 20(1):61-72). Naïve CD4+ T cells were differentiated into Th1 and Th17 cells, in triplicate, in the presence or absence of CB839 over 5 days and spun down after reisolation using CD4 kit as previously described. Cells were washed 2× in PBS, counted, then rested in 1 mL Kreb's Ringers HEPES (KRH) for 10 minutes. Cells were spun and resuspended to 5×10^5 cells/50 uL KRH for glucose uptake assay. Briefly, cells were […]. Cells incubated for 10 minutes at 37° C. Immediately after incubation, reaction was quenched with 200 μM phloretin (Calbiochem, Cat #: 524488). Cells were spun, washed, and then resuspended in scint fluid for counting on Beckman-Coulter scintillation counter. Pathway analysis of altered metabolites was performed using Metaboanalyst 3.0 (metaboanalyst. ca/faces/home.xhtml).
Differentiation: CD4 cells were isolated as previously described and differentiated in subset-specific medium (in triplicate) for 3 days, split at day 3 with new media and IL-2, then allowed to incubate a further 2 days. At day 5, wells were combined, cells washed lx in MACS buffer, re-isolated for CD4 via AutoMACS Pro automated magnetic separator (Miltenyi, Cat #: 130-092-545). Metabolites from Th1 and Th17 cells were extracted as described above.
Differentiation. CD4 cells were isolated as previously described and differentiated in subset-specific medium in the presence of vehicle or CB839 (in triplicate) for 3 days, split at day 3 with new media and IL-2, then allowed to incubate a further 2 days. At day 5, wells were combined, cells washed 1× in MACS buffer and re-isolated for CD4 via AutoMACS Pro automated magnetic separator (Miltenyi, Cat #: 130-092-545). Metabolites from Th1 and Th17 cells were extracted and analyzed by LC-HRMS using a Q-Exactive as described previously (Gerriets et al., 2015). Data were range scaled and analyzed using Metaboanalyst 3.5 (Xia and Wishart, 2002) to generate heat maps and for principle component analyses.

[4] = test system: Th17 cells; experiment: CD4 T cells in Th17 skewing conditions, flow cytometry
[5] = test system: Eμ B ALL cells; experiment: In vitro CAR T cell co-culture with target Eμ B ALL cells; type: cell-based, mouse; conditions: CAR-T cells treated with CB839 before co-culture
Description: T cells were isolated from wild type C57BL6 spleens using the Pan T Cell isolation kit (Cat #: 130-095-130) and were activated on anti-CD3 anti-CD28 coated plates with IL2 for four days with or without CB839. On days 1 and 2, T cells were transduced with retrovirus produced by Plat-E cells carrying the CAR construct targeting CD19 with GFP reporter. On day 4, CAR T cells were washed three times to remove any drug remnants and plated to equal concentrations on a 96 well plate at 5×10^5 cells per well and serial dilutions thereof. 5×10^5 Emu cells, a CD19+ B cell acute lymphoblastic leukemia cell line
(Generously provided by Dr. Davila Lab) were then added to every well to assay cell numbers. CD19+ and GFP+events were stained and counted by flow for each well after 72 hours.

[6] = CD8 T cells, five days stimulation

Structure (SMILES): O=C(Cc1cccc(OC(F)(F)F)c1)Nc1ccc(CCCCc2nnc(NC(=O)Cc3ccccn3)s2)nn1 [CB839]
- genes with regions of altered chromatin accessibility [1]: more genes with regions of reduced accessibility
- Granzyme B ([2]; CD8 T cells, 4-5 days stimulation): increased levels of Granzyme B
- Eomes [2, 6]: increased levels
- Perforin [2, 6]: increased
- Tbet [2, 6]: increased levels
- markers of proliferation [2, 6]: increased levels
- portion of CD8 T cells expressing inhibitory receptors Lag3 and PD-1 [2, 6]: increased
- phospho-S6 ([2]; CTL in the presence of IL2): enhanced phospho-S6
- 2-hydroxyglutarate (2-HG) ([3]; Th17, CB839-treated vs vehicle): increased in both Th1 and Th17
- intracellular α-KG ([3]; Th17, CB839-treated vs vehicle): reduced in CB839-treated Th1, but not Th17 cells
- programs of intracellular metabolites ([3]; Th17, differentiated with CB839, 5 days): more pronounced in Th17 than in Th1 cells; also recorded: shifted
- glutamate and aspartate levels ([3]; Th17, over five days): rapidly decreased
- steady state levels of glutamine ([3]; Th17, over five days): rapidly increased
- Hits ([3]; Alanine, aspartate and glutamate metabolism): 5
- Hits ([3]; Pentose phosphate pathway): 5
- Hits ([3]; Phenylalanine, tyrosine and tryptophan biosynthesis): 2
- Hits ([3]; Purine metabolism): 8
- Myc protein ([4]; Th17): modestly increased Myc in Th1 but not Th17 cells
- proliferation ([4]; Th17): decreased cytokine production and proliferation only from Th17 cells
- H3K27 tri-methylation, initially ([4]; Th17, Day 3): increased H3K27 tri-methylation
- proliferation ([4]; Th17, after three days in culture): impaired proliferation
- ROS (DCFDA) ([4]; Th17, day 5): ROS increased
- expression of KLRG1 and PD1 ([4]; Th17, day 5): decreased or unchanged
- global H3K27 trimethylation ([4]; Th17, day 5, normalized to total H3): increased
- phospho-S6 ([4]; Th17, day 5, with IL2): decreased phosphor-S6; also recorded: decreased phospho-S6
- ROS (DCFDA) ([4]; Th17, day 5, listed as CD839): increased ROS
- global H3K4 trimethylation ([4]; Th17, day five): increased
- total rRNA levels per cell ([4]; Th17, day five): decreased
- Th17 cytokine production and differentiation ([4]; Th17 skewing, 5 days, CB839 vs vehicle): decreased cytokine production and proliferation only from Th17 cells
- induction of Treg (Foxp3) ([4]; under Th17 conditions): failed to do so
- elimination of B cell leukemia cells in vitro [5]: greater ability to eliminate B cell leukemia cells in vitro
